Measured values: patent US10736911B2, “Use of a DHODH inhibitor in combination with an inhibitor of pyrimidine salvage” (The Board of Trustees of the Leland Stanford Junior …, priority 2015, dated 2020)
Like-named read-outs stand apart in the source and are kept apart here.

What was measured:
K562 cells [1] = assay: K562 cell count, DP with GSK983 in uridine supplemented media; assay type: cell-based; conditions: Homo sapiens, 50 nM GSK983, 20 μM uridine supplemented media, 72 h
[2] = tested on: A549 lung cancer cell line; assay: A549 cell count, DP with GSK983 in uridine supplemented media; assay type: cell-based; conditions: Homo sapiens, 158 nM GSK983, 20 μM uridine supplemented media, 72 h, read-out: IC50(DP), A549 viable cell count
DENV [3] = assay: DENV antiviral assay for combination of GSK983 and DP; assay type: cell-based, dengue virus serotype 2 strain 16681; conditions: Dengue virus
[4] = tested on: uridine salvage in K562 and A549 cells; assay: Uridine salvage inhibition by 5-ethynyl-uridine (5-EU) incorporation and click chemistry; assay type: cell-based; conditions: Homo sapiens
MV4-11 cells = assay: MV4-11 cell killing, DP with GSK983 in uridine supplemented media; assay type: cell-based; conditions: Homo sapiens, 158 nM GSK983, 20 μM uridine supplemented media
DENV [5] = assay: DENV antiviral assay (DENV-Luc replication in A549 cells); assay type: cell-based, dengue virus serotype 2 strain 16681; conditions: for IC50: Dengue virus, A549, 72 h
K562 cells [6] = assay: GSK983 dose response, K562 cell growth (viable cells by flow cytometry); assay type: cell-based; conditions: Homo sapiens, 72 h treatment, viable cells counted by flow cytometry, read-out: IC50, inhibition of K562 cell growth
Protocol: GSK983 dose response and growth time course in K562 cells. To determine the dose response of K562 cells to GSK983, K562 cells were seeded into 24-well plates at a density of 50,000 cells/mL and treated with GSK983 at the indicated concentration for 72 h. Following 72 h treatment, cells were harvested and the density of viable cells was determined by flow cytometry (FSC/SSC) using a BD Accuri C6 Flow Cytometer. IC50 values were calculated by fitting a 4-parameter logistic equation to the data. […] At the indicated time points, cells were harvested and the density of viable cells was determined by flow cytometry (FSC/SSC) using a BD Accuri C6 Flow Cytometer.

[7] = tested on: variety of unrelated viruses; conditions: Harvey et al. (2009); read-out: EC50, inhibition of replication of a variety of unrelated viruses in vitro; cited from earlier work
K562 cells [8] = assay: Cell cycle analysis based on total DNA content (propidium iodide); parameters: species or system human; conditions: 24 h GSK983 treatment
Protocol: Cell cycle analysis based on total DNA content (propidium iodide). […] Cells were treated with the indicated concentration of GSK983 for 24 h. […] Following 24 treatment, cells were harvested and pelleted (300 g, 5 min). The supernatant was removed by vacuum and the cells were washed (0.5 mL 1×PBS). Cells were resuspended in 70% EtOH (1 mL, 0° C.) with mild vortexing. Cells were fixed in 70% EtOH overnight at 4° C. The following day, fixed cells were pelleted (1900 g, 5 min), washed (0.5 mL 1×PBS), and resuspended in 200 μL of a total DNA content staining solution (1×PBS with 50 μg/mL RNase A and 10 μg/mL propidium iodide). Samples were incubated for 30 min at 37° C. and analyzed by flow cytometry using a BD Accuri C6 Flow Cytometer. Propidium iodide fluorescence was detected in FL2.

DENV [9] = assay type: cell-based, dengue virus serotype 2 strain 16681; conditions: 48 nM GSK983, 20 μM uridine, UCK2 shRNA derivative
recombinant human CMPK1 = target: T1, recombinant human CMPK1 (Homo sapiens, UniProt P30085); assay: In vitro enzyme activity assay with recombinant human CMPK1 (ATP consumption); assay type: biochemical; conditions: GSK983 concentrations up to 10 μM
T1 sequence (P30085 1-196): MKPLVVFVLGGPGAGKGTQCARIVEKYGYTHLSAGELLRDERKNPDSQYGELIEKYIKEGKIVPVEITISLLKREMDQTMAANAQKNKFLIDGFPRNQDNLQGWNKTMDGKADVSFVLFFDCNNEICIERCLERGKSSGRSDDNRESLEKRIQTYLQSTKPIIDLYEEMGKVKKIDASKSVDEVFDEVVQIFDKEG
Protocol: In vitro enzyme activity assays with recombinant human CMPK1. The activity of recombinant human CMPK1 was measured in the presence of GSK983 using an ATP consumption assay. CMPK1 (10 nM) was added to a reaction buffer containing Tris (50 mM, pH 7.5), MgCl2 (2 mM), DTT (2 mM), ATP (100 μM), CMP (100 μM), and GSK983 (0-10 μM, from a DMSO stock solution). The final concentration of DMSO in all reaction mixtures was 2% (v/v). Enzyme activity assays were conducted at 37° C. The consumption of phosphoryl donor ATP was monitored using a Promega Kinase-Glo Luminescent Kinase Assay kit according to the manufacturer's instructions. We observed no effect of GSK983 on CMPK1 activity in vitro at GSK983 concentrations up to 10 μM.

VEEV = assay: microbe, parasite or virus in culture; assay type: cell-based, Venezuelan equine encephalitis virus (vaccine strain TC-83); conditions: Venezuelan equine encephalitis virus, A549, read-out: IC50, inhibition of VEEV replication
recombinant human DHODH = recombinant human DHODH (Homo sapiens, UniProt Q02127); assay: In vitro enzyme activity assay with recombinant human Δ29DHODH (DCPIP coupled assay); assay type: biochemical; conditions: recombinant human Δ29DHODH 10 nM, DHO 200 μM; read-out: Ki, DHODH, competitive with respect to decylubiquinone binding
recombinant human DHODH, sequence (Q02127 30-395): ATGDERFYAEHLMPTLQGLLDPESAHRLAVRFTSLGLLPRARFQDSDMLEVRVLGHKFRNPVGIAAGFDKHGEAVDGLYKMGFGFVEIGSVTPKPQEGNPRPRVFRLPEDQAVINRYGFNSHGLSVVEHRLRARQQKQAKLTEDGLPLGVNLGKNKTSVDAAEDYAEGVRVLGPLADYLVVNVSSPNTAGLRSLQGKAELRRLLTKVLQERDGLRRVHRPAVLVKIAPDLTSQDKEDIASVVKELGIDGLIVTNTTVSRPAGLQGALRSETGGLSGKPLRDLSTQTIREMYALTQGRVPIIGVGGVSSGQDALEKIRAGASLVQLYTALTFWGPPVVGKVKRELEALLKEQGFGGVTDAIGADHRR
Protocol: The reduction of DCPIP can be monitored by the loss of absorbance at 610 nm (ε=21,500 M−1cm-1). Kinetic constants were calculated from measurements in which Δ29DHODH (10 nM) was either titrated with different concentrations of decylubiquinone (QD, 10-60 μM) at a fixed concentration of DHO (200 μM) or titrated with different concentrations of DHO (10-60 μM) at a fixed concentration of QD (100 μM). Enzymatic assays were conducted at 25° C. in a reaction buffer containing Tris (100 mM, pH 8.0), NaCl (150 mM), DCPIP (60 μM), glycerol (10% v/v), and Triton X-100 (0.1% v/v). The Km values for Δ29DHODH (15 μM for DHO and 14 μM for QD) were in good agreement with previously reported values for both the full-size and N-terminally truncated enzyme.
For each inhibitor compound, three reactions were prepared: a control reaction containing no inhibitor and two reactions containing different inhibitor concentrations. Δ29DHODH was incubated with inhibitor compounds at room temperature for 5 min. The indicated concentration of QD and DHO (200 μM) were added to the reaction mixtures and absorbance at 610 nm was monitored using a PerkinElmer Lamda 25 UV-Vis spectrophotometer. For enzyme activity assays, inhibitor compounds were prepared as 1 mM stock solutions in DMSO. A QD stock solution (10 mM) was prepared in a buffer containing Tris (100 mM, pH 8.0) and Triton X-100 (1.0% v/v). […]

K562 cells [10] = assay: Annexin V-FITC/7-AAD apoptosis assay; assay type: cell-based, human; conditions: 72 h GSK983 treatment
Protocol: Annexin V-FITC/7-AAD apoptosis assay. K562 cells were seeded into 24-well plates at a density of 50,000 cells/mL and treated with the indicated concentration of GSK983 for 72 h. The final concentration of DMSO in each well was <0.1%. Following 72 h GSK983 treatment, cells were harvested and pelleted (399 g, 5 min). The supernatant was removed by vacuum. Cell death by apoptosis was analyzed using a BioVision Annexin V-FITC Apoptosis Kit (catalog number K101-100). A staining solution was prepared by first diluting the provided Annexin V-FITC solution in binding buffer according to the specifications of the manufacturer. 7-AAD was added from a stock solution in DMSO (0.67 mg/mL) such that the final concentration of 7-AAD in the staining solution was 2.5 μg/mL. Cell samples were resuspended in 0.5 mL of the staining solution. Samples were incubated at room temperature for 10 min in the dark and analyzed by flow cytometry using a BD Accuri C6 Flow Cytometer. FITC fluorescence was detected in FL1 and 7-AAD fluorescence was detected in FL3.

A549 cells = assay: A549 cell viability assay accompanying the DENV assay; assay type: cell-based, human; conditions: 30 nM GSK983 and 1 mM deoxycytidine, 72 h
[11] = tested on: chronic myelogenous leukemia (CML); conditions: in vivo; cited from earlier work

Q: Which results are given for `OCCN(CCO)c1nc(N2CCCCC2)c2nc(N(CCO)CCO)nc(N3CCCCC3)c2n1` [DP, dipyridamole]?
A: IC50 (K562 cells [1]): 110 nM; IC50 [2]: 230 nM; EC50 (DENV [3]; A549, 48 h, read-out: EC50 of DP, DENV luciferase signal, 2 days post-infection): 135 nM; EC50 (DENV [3]; A549, 72 h, read-out: EC50 of DP, DENV luciferase signal, 3 days post-infection): 164 nM; IC50 [4]: 200 nM; IC50 (MV4-11 cells): 110 nM

Q: With `O=C(N[C@@H]1CCCc2c1[nH]c1ccc(Cl)cc21)c1ccccn1` [GSK983, (R)—N-(6-Chloro-2,3,4,9-tetrahydro-1H-carbazol-1-yl)picolinamide] as the compound, how does the “Reduction in DENV replication” value (DENV [5]; 30 nM GSK983 and 1 mM deoxycytidine, A549 cells) read?
A: ~90%

Q: And the “Antiviral activity against DENV with uridine supplementation” value (DENV [5]; A549 cells, 1 mM uridine)?
A: completely abolished the antiviral activity

Q: And the IC50 (DENV [5]; read-out: IC50, inhibition of DENV replication)?
A: 13.3 nM

Q: And the IC50 (DENV [5]; read-out: IC50, inhibition of DENV replication with exogenous deoxycytidine)?
A: 13.5 nM

Q: And the IC50 (K562 cells [6])?
A: 21 nM

Q: And the EC50 [7]?
A: 5 to 20 nM

Q: What about the Cell cycle effect (K562 cells [8]) of the same compound?
A: accumulation of K562 cells in S phase

Q: And the “DENV replication in A549 UCK2 shRNA cells” value (DENV [9])?
A: inhibited viral replication in the latter cell-line

Q: What about the “Effect on in vitro CMPK1 activity” value (recombinant human CMPK1) of the same compound?
A: no effect

Q: And the IC50 (VEEV)?
A: 12.8 nM

Q: What about the Ki (recombinant human DHODH) of the same compound?
A: 403 nM

Q: And the “Cell death by apoptosis” value (K562 cells [10])?
A: dose dependent increase in K562 cell death by apoptosis

Q: What about the “Effect on A549 cell growth” value (A549 cells) of the same compound?
A: minimal effect

Q: Which “Efficacy towards CML in mouse models” value [11] does the source give for `Cc1c(-c2ccc(-c3ccccc3F)cc2)nc2ccc(F)cc2c1C(=O)O` [brequinar] here?
A: effective
